For one series, the system named is CXCR4 mRNA. Put plainly: CXCR4 mRNA expression by RT-PCR in AGS cells. The following applies: 5 μm. Type of series: cell-based. As to the method: (§1) (A) MDA-MB-231 (2×10^5 cells) were seeded in the top-chamber of the Matrigel. After pre-incubation with or without the composition according to Ex. 6 and its major active components (5 μm) for 6 h, transwell chambers were then placed into the wells of a 24-well plate, in which we had added either the basal medium only or basal medium containing 10 ng/ml CXCL12 for 24 h. After incubation, they were assessed for cell invasion. Columns indicate mean percentage of invaded cells; bars, S.E. *, P>0.05. (B) AGS (2×10^5 cells) were seeded in the top-chamber of the Matrigel. After preincubation with or without the composition and its major active components (5 μm) for 6 h, transwell chambers were then placed into the wells of a 24-well plate, in which we had added either the basal medium only or basal medium containing 100 ng/ml CXCL12 for 24 h. After incubation, the chambers were assessed for cell invasion. Columns indicate mean percentage of invaded cells; bars, S.E. *, P>0.05. Representative results of three independent experiments are shown. […] AGS cells were treated with 5 μm of the composition and its major active components for indicated times. Total RNA was isolated and analyzed by RT-PCR assay. […] Representative results of three independent experiments are shown. […] Cells were incubated with 5 μm of the active ingredients of the composition and its single major active components for indicated times. Whole-cell extracts were prepared and analyzed by Western blot analysis using antibodies against CXCR4. The same blots were stripped and reprobed with β-actin antibody to show equal protein loading. Representative results of three independent experiments are shown.

In a further series the test system is AGS cells. Put plainly: Matrigel transwell invasion assay with CXCL12, AGS. The following applies: 5 μm, cell line not given. Format: cell-based. As for the experimental part: as §1, with “[…],” for “After preincubation with or without the composition and its major active components (5 μm) for 6 h,”, “which we had added either the basal medium only or basal medium containing 100 ng/ml CXCL12 for 24 h.” left out

Series [1] concerns CXCR4. The series is described as follows: CXCR4 protein expression, Western blot of whole-cell extracts of gastric cancer cells. Format: cell-based. Conditions: 5.0 μm, 6 h, line not given. As to the method:
Different tumor cell types, namely gastric cancer (AGS, MKN45, and SNU16) cells were incubated with different components of the composition as well as a combination according to the finished product for 6 h. Whole-cell extracts were prepared and analyzed by Western blot analysis using antibody against CXCR4. The same blots were stripped and reprobed with β-actin antibody to show equal protein loading. Representative results of three independent experiments are shown.
The same experiment was carried out to find out whether the composition downregulates expression of CXCR4 in gastric (AGS, MKN45, and SNU16) cancer cell lines, which has never been investigated before. Cells were treated with 5 μm active ingredients of Ex. 6 and its major active components for 6 h before assessing the resultant effect on CXCR4 expression.
(A) MDA-MB-231 (2×10^5 cells) were seeded in the top-chamber of the Matrigel. After pre-incubation with or without the composition according to Ex. 6 and its major active components (5 μm) for 6 h, transwell chambers were then placed into the wells of a 24-well plate, in which we had added either the basal medium only or basal medium containing 10 ng/ml CXCL12 for 24 h. After incubation, they were assessed for cell invasion. Columns indicate mean percentage of invaded cells; bars, S.E. *, […]. (B) AGS (2×10^5 cells) were seeded in the top-chamber of the Matrigel. After preincubation with or without the composition and its major active components (5 μm) for 6 h, transwell chambers were then placed into the wells of a 24-well plate, in which we had added either the basal medium only or basal medium containing […] CXCL12 for 24 h. After incubation, the chambers were assessed for cell invasion. Columns indicate mean percentage of invaded cells; bars, S.E. *, […]. Representative results of three independent experiments are shown. […] Total RNA was isolated and analyzed by RT-PCR assay. […] Whole-cell extracts were prepared and analyzed by Western blot analysis using antibodies against CXCR4. […]
On the technique in general: Immunoblotting shows a protein as a band on a membrane.

The subject of series [2] is CXCR4. The series is described as above. Type of series: cell-based. Conditions: 6 h, line not given.
For series [3], the system named is gram positive and gram negative, aerobic, and anaerobic bacteria. The following applies: in vivo or in vitro; cited from earlier work.
For series [4] the following is noted: cited from earlier work.

Results on four compounds are retold here after patent publication US20140154317A1, “Pharmaceutical Composition for Treatment of Helicobacter Pylori Associated Diseases” (priority 2012, published 2014).

In the case of `CC[C@H]1OC(=O)[C@H](C)[C@@H](O[C@H]2C[C@@](C)(OC)[C@@H](O)[C@H](C)O2)[C@H](C)[C@@H](O[C@@H]2O[C@H](C)C[C@H](N(C)C)[C@H]2O)[C@](C)(OC)C[C@@H](C)C(=O)[C@H](C)[C@@H](O)[C@]1(C)O` [CLR, clarithromycin], the “mRNA fold change (CXCR4)” value in the series with CXCR4 mRNA (time 0 hours) was 0.90 ± 0.05; in the series with CXCR4 mRNA (time 2 hours), 0.78 ± 0.02; with CXCR4 mRNA (time 6 hours), 0.63 ± 0.03; in the series on CXCR4 mRNA (time 8 hours), 0.50 ± 0.03; in the series on CXCR4 mRNA (time 12 hours) it was 0.42 ± 0.03; with CXCR4 mRNA (time 24 hours) it was 0.37 ± 0.03. The “Percentage of invade cells” value with AGS cells (time 0 hours) is listed as 85.23 ± 11.51%; with AGS cells (time 2 hours), 80.22 ± 10.25%; in the series on AGS cells (time 6 hours) it was 77.26 ± 9.14%; with AGS cells (time 8 hours), 62.27 ± 6.50%; with AGS cells (time 12 hours), 55.20 ± 7.10%; with AGS cells (time 24 hours), 48.20 ± 6.15%. Besides, the “Fold change (CXCR4 expression)” value in the series with CXCR4 [1] was found to be 0.44 ± 0.01; with CXCR4 [2] (0.5 μm), 1.3 ± 0.01; in the series on CXCR4 [2] (1.0 μm), 0.97 ± 0.01; in the series on CXCR4 [2] (2.5 μm), 0.79 ± 0.04.

For the compound `COc1ccc2[nH]c([S+]([O-])Cc3ncc(C)c(OC)c3C)nc2c1` (stereo not drawn) [PPI, Omeprazol], the “mRNA fold change (CXCR4)” value came to 0.92 ± 0.02 with CXCR4 mRNA (time 0 hours); 0.88 ± 0.021 with CXCR4 mRNA (time 2 hours); 0.67 ± 0.06 in the series with CXCR4 mRNA (time 6 hours); 0.54 ± 0.04 in the series on CXCR4 mRNA (time 8 hours); 0.41 ± 0.04 with CXCR4 mRNA (time 12 hours); 0.38 ± 0.04 in the series on CXCR4 mRNA (time 24 hours). Moreover, the “Percentage of invade cells” value stood at 85.23 ± 11.51% in the series with AGS cells (time 0 hours); 82.10 ± 15.10% in the series on AGS cells (time 2 hours); 74.11 ± 6.25% in the series on AGS cells (time 6 hours); 60.12 ± 11.50% in the series with AGS cells (time 8 hours); 49.25 ± 7.26% in the series with AGS cells (time 12 hours); 39.25 ± 4.15% in the series with AGS cells (time 24 hours). Also, the “Fold change (CXCR4 expression)” value is 0.46 ± 0.02 with CXCR4 [1], 1.4 ± 0.02 with CXCR4 [2] (0.5 μm), 0.96 ± 0.03 in the series on CXCR4 [2] (1.0 μm) and 0.81 ± 0.05 with CXCR4 [2] (2.5 μm).

On to `CCS(=O)(=O)CCn1c([N+](=O)[O-])cnc1C` [TND, tinidazole], for which the “mRNA fold change (CXCR4)” value stood at 0.94 ± 0.02 in the series on CXCR4 mRNA (time 0 hours); 0.83 ± 0.01 with CXCR4 mRNA (time 2 hours); 0.79 ± 0.04 in the series on CXCR4 mRNA (time 6 hours); 0.65 ± 0.03 with CXCR4 mRNA (time 8 hours); 0.51 ± 0.03 in the series with CXCR4 mRNA (time 12 hours); 0.39 ± 0.03 with CXCR4 mRNA (time 24 hours). The “Percentage of invade cells” value is recorded as 85.23 ± 11.51% in the series with AGS cells (time 0 hours); 81.10 ± 14.20% in the series with AGS cells (time 2 hours); 72.55 ± 8.10% in the series on AGS cells (time 6 hours); 64.65 ± 10.11% in the series with AGS cells (time 8 hours); 51.33 ± 8.20% with AGS cells (time 12 hours); 42.25 ± 8.55% with AGS cells (time 24 hours). Also, the “Fold change (CXCR4 expression)” value in the series on CXCR4 [1] is recorded as 0.53 ± 0.03; with CXCR4 [2] (0.5 μm) it was 1.4 ± 0.01; with CXCR4 [2] (1.0 μm), 0.98 ± 0.01; in the series with CXCR4 [2] (2.5 μm), 0.85 ± 0.01.

With `O=S1(=O)CCN(CN2CCS(=O)(=O)NC2)CN1` [Taurolidine, [bis(1,1-dioxoperhydro-1,2,4-thiadiazinyl-4)]-methane], the “Resistance (in words)” value in series [3] is recorded as “has not been observed”. Moreover, the “cumulative dose shown safe and well tolerated” value in series [4] (cumulative doses) is at least 300 g. For the same compound, the “systemic dose shown safe and well tolerated” value in series [4] (systemic doses) is given as “exceeding 40 g/day”.
